# Like-named read-outs stand apart in the source and are kept apart here.
# Key:
# [1] = target: T1, H4 (Homo sapiens, UniProt Q9H3N8); experiment: competitive radioligand binding, HEK293 membranes
# T1 construct: gene HRH4; full-length receptor; HEK293 cell membranes
# Excerpt: competitive radioligand binding, HEK293 membranes on H4
# [2] = target: T2, M2 (Homo sapiens, UniProt P08172); experiment: competitive radioligand binding, HEK293 membranes
# T2 construct: gene CHRM2; full-length receptor; HEK293 with TRUPATH sensors (function)
# T2 sequence (P08172 1-466): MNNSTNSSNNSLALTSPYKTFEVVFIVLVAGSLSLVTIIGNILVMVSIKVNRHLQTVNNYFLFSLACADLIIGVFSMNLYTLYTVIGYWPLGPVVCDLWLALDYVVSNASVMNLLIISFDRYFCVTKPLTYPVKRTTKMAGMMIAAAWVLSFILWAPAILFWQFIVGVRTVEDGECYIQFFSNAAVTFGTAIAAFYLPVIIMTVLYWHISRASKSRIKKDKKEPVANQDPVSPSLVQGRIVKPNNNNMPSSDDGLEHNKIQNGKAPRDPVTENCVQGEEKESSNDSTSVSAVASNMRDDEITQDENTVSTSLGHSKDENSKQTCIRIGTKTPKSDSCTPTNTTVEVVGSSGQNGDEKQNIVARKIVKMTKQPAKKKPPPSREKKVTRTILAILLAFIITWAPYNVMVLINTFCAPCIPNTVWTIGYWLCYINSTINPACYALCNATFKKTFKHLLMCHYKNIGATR
# [3] = target: β2 (Homo sapiens, UniProt P07550); experiment: competitive radioligand binding, HEK293 membranes; parameters: gene ADRB2; full-length receptor; HEK293 cell membranes
# Sequence of β2 (P07550 whole entry): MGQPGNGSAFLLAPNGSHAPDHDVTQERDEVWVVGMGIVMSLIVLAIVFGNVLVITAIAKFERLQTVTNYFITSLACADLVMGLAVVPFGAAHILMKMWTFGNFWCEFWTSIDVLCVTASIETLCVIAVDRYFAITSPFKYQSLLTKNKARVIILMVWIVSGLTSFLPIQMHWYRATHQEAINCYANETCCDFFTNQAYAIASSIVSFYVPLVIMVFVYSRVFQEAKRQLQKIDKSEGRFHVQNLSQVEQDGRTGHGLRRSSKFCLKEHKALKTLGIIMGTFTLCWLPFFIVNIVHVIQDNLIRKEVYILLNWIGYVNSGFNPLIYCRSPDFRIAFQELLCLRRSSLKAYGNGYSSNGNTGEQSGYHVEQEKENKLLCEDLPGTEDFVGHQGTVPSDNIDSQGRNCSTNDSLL
# Excerpt: competitive radioligand binding, HEK293 membranes on β2
# [4] = target: T3, 5-HT1D (Homo sapiens, UniProt P28221); experiment: competitive radioligand binding, HEK293 membranes
# T3 construct: gene HTR1D; full-length receptor; HEK293 with TRUPATH sensors (function)
# T3 sequence (P28221 whole entry): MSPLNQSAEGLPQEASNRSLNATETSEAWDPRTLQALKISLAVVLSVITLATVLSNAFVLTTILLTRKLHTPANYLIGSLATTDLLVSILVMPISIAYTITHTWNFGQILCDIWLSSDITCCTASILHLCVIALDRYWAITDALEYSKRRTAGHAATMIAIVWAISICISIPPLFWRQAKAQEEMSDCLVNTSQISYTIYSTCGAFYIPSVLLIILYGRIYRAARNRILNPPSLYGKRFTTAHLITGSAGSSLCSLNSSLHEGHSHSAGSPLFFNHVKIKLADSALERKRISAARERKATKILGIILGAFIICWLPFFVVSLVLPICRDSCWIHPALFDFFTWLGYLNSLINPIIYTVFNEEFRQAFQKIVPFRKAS
# [5] = target: T4, HTR2C (Homo sapiens, UniProt P28335); experiment: cell-based; parameters: species or system HEK293; TRUPATH BRET2 G-protein dissociation; antagonist mode against agonist EC80; details: HEK293, read-out: N-Desmethyl Xanomeline, Assay=Gq; agonist mode, % of control agonist
# T4 sequence (P28335 1-458): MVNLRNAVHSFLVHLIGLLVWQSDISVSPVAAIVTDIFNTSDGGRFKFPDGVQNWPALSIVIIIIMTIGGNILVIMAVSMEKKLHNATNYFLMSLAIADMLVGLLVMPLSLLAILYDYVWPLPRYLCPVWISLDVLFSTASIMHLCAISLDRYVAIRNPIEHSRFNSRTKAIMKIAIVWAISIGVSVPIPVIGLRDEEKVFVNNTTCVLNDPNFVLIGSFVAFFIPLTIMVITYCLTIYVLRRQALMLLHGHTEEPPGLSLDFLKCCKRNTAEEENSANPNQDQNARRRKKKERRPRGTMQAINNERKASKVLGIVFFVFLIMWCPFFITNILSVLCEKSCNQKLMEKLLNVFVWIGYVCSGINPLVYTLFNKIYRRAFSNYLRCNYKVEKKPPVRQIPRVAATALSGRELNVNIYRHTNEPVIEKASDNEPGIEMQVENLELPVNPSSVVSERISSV
# [6] = target: T4, HTR2C; experiment: cell-based; parameters: species or system HEK293; TRUPATH BRET2 G-protein dissociation; antagonist mode against agonist EC80; details: Assay=Gq; agonist mode
# [7] = target: HRH4 (Homo sapiens, UniProt Q9H3N8); experiment: cell-based; parameters: species or system HEK293; TRUPATH BRET2 G-protein dissociation; antagonist mode against agonist EC80; details: N-Desmethyl Xanomeline, agonist mode
# Sequence of HRH4 (Q9H3N8 whole entry): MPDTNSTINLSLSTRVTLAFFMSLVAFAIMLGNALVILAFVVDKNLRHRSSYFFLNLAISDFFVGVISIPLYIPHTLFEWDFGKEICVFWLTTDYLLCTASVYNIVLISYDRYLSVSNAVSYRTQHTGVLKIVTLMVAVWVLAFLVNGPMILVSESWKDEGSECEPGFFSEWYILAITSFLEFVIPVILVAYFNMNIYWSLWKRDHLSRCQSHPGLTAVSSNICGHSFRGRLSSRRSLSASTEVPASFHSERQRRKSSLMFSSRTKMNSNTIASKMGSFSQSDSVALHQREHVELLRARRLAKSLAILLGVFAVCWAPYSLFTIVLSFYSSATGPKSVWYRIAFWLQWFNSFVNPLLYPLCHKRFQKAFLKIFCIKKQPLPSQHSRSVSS
# [8] = target: HTR1D (Homo sapiens, UniProt P28221); experiment: cell-based; parameters: species or system HEK293; TRUPATH BRET2 G-protein dissociation; antagonist mode against agonist EC80; details: N-Desmethyl Xanomeline, agonist mode
# Sequence of HTR1D (P28221 whole entry): as the sequence (P28221 whole entry) above
# [9] = target: T4, HTR2C; experiment: cell-based; parameters: species or system HEK293; Fluo-4 Direct calcium mobilization on FLIPR-Tetra; details: HEK293, read-out: N-Desmethyl Xanomeline; Assay=Calcium; agonist mode, % of control agonist
# [10] = target: T4, HTR2C; experiment: cell-based; parameters: species or system HEK293; Fluo-4 Direct calcium mobilization on FLIPR-Tetra; details: Assay=Calcium; agonist mode
# [11] = target: CHRM3 (Homo sapiens, UniProt P20309); experiment: cell-based; parameters: species or system HEK293; TRUPATH BRET2 G-protein dissociation; antagonist mode against agonist EC80; details: Xanomeline, Assay=Gq; agonist mode
# Sequence of CHRM3 (P20309 whole entry): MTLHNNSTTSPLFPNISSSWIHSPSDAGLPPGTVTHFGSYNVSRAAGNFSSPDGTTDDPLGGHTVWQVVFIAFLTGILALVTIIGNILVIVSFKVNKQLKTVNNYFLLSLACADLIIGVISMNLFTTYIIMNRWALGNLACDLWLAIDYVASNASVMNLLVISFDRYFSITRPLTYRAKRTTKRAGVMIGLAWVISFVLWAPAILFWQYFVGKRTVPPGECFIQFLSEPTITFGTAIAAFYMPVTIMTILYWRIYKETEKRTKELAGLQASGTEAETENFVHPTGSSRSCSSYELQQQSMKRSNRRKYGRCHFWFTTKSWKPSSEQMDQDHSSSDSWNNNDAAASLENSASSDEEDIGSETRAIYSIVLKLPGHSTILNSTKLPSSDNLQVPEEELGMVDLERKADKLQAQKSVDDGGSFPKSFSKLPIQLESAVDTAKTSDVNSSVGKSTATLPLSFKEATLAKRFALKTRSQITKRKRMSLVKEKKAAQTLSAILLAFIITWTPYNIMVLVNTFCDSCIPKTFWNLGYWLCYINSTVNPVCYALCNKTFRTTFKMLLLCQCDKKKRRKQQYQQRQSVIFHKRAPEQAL
# [12] = target: T5, H3 (Homo sapiens, UniProt Q9Y5N1); experiment: competitive radioligand binding, HEK293 membranes
# T5 construct: gene HRH3; full-length receptor; HEK293 cell membranes
# T5 sequence (Q9Y5N1 whole entry): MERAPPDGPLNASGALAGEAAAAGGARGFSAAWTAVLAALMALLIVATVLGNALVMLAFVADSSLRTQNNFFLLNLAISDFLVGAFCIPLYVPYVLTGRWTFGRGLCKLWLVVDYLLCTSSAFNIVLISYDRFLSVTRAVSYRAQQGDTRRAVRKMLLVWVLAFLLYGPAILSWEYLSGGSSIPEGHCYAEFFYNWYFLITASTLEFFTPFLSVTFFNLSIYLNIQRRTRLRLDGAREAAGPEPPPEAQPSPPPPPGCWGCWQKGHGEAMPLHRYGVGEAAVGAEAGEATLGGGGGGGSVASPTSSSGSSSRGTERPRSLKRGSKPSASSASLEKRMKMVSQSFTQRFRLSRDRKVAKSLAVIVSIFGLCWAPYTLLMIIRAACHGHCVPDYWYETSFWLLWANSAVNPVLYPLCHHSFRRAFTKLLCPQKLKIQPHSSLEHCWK
# Excerpt: competitive radioligand binding, HEK293 membranes on H3
# T1 sequence (Q9H3N8 whole entry): as the sequence (Q9H3N8 whole entry) above
SMILES,Ki [1],Ki [2],Ki [3],Ki [4],Emax [5],EC50 [6],EC50 ([7]; Assay=Gi1),EC50 ([7]; Assay=Gi2),EC50 ([7]; Assay=Gi3),EC50 ([7]; Assay=GoA),EC50 ([8]; Assay=Gi2),EC50 ([8]; Assay=GoA),EC50 ([8]; Assay=GoB),EC50 ([8]; Assay=Gz),Emax [9],EC50 [10],EC50 [11],Ki [12]
CCCCCCOc1nsnc1C1=CCCNC1 [N-desmethylxanomeline],363 nM,1450 nM,832 nM,38.9 nM,106%,1940 nM,4870 nM,1390 nM,6360 nM,6250 nM,36.2 nM,63.1 nM,25.8 nM,146 nM,59%,1090 nM,–,–
CCCCCCOc1nsnc1C1=CCCN(C)C1 [Xanomeline],–,–,–,–,–,–,–,–,–,–,–,–,–,–,–,–,53.4 nM,794 nM

# Source: article doi:10.1101/2025.11.20.689572v1 (biorxiv, 2025)
